# Measurements reported in patent US20250129430A1, “HIGH ATP-AFFINITY PROTEIN AS THERAPEUTIC TARGET FOR INTRACTABLE CANCER MOLECULAR SUBTYPES AND INHIBITOR THEREOF” (VeraVerse Co., Ltd., priority 2021, published 2025).
# Columns and labels:
# Assay in all cases: Cell viability drug screen, 12-point dose-response AUC
# Type in all cases: cell-based, human
# [1] = tested on: SNU601; conditions: SNU601 cells, 72 hours; for area under the viability curve (AUC), normalized: 12-point dose-response
# Summary of the method: (§1)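 Luminescent viability readings, taken 15 min after reagent addition at room temperature, were normalized to the 0.5% DMSO control to build 12-point dose-response curves. Trapezoidal integration gave the AUC. Cells had been plated at 5×10^3 per well and then exposed to half-log dilutions for 72 h.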
# [2] = tested on: NCI_N87; conditions: NCI_N87 cells, 72 hours; for area under the viability curve (AUC), normalized: 12-point dose-response
# Summary of the method: as §1
# [3] = tested on: Hs746T; conditions: 72 hours; for area under the viability curve (AUC), normalized: Hs746T cells, 12-point dose-response
# Summary of the method: as §1
# [4] = tested on: KATO3; conditions: KATO3 cells, 72 hours; for area under the viability curve (AUC), normalized: 12-point dose-response
# Summary of the method: as §1
# [5] = tested on: SNU719; conditions: SNU719 cells, 72 hours; for area under the viability curve (AUC), normalized: 12-point dose-response
# Summary of the method: (§2)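 Each cell line receives a twelve-point half-log titration of drug beginning 24 h after plating 5×10^3 cells per well. Following 72 h culture at 37 °C, luminescent signal is recorded and expressed versus vehicle. AUC is derived by the trapezoidal method.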
# [6] = tested on: MKN1; conditions: MKN1 cells, 72 hours; for area under the viability curve (AUC), normalized: 12-point dose-response
# Summary of the method: as §1
# [7] = tested on: SNU16; conditions: SNU16 cells, 72 hours; for area under the viability curve (AUC), normalized: 12-point dose-response
# Summary of the method: as §1
# [8] = tested on: MKN45; conditions: 72 hours; for area under the viability curve (AUC), normalized: MKN45 cells, 12-point dose-response
# Summary of the method: as §2
# [9] = tested on: MKN28; conditions: MKN28 cells, 72 hours; for area under the viability curve (AUC), normalized: 12-point dose-response
# Summary of the method: as §1
# [10] = tested on: SNU668; conditions: 72 hours; for area under the viability curve (AUC), normalized: SNU668 cells, 12-point dose-response
# Summary of the method: as §1
# [11] = tested on: YCC2; conditions: YCC2 cells, 72 hours; for area under the viability curve (AUC), normalized: 12-point dose-response
# Summary of the method: as §1
# [12] = tested on: OCUM1; conditions: OCUM1 cells, 72 hours; for area under the viability curve (AUC), normalized: 12-point dose-response
# Summary of the method: as §1
# [13] = tested on: YCC11; conditions: 72 hours; for area under the viability curve (AUC), normalized: YCC11 cells, 12-point dose-response
# Summary of the method: as §1
# [14] = tested on: SK4; conditions: 72 hours; for area under the viability curve (AUC), normalized: SK4 cells, 12-point dose-response
# Summary of the method: as §1
# [15] = tested on: NCC20; conditions: NCC20 cells, 72 hours; for area under the viability curve (AUC), normalized: 12-point dose-response
# Summary of the method: as §1
# [16] = tested on: SNU1; conditions: SNU1 cells, 72 hours; for area under the viability curve (AUC), normalized: 12-point dose-response
# Summary of the method: as §1
# [17] = tested on: MKN74; conditions: MKN74 cells, 72 hours; for area under the viability curve (AUC), normalized: 12-point dose-response
# Summary of the method: as §2
# [18] = tested on: SNU1967; conditions: SNU1967 cells, 72 hours; for area under the viability curve (AUC), normalized: 12-point dose-response
# Summary of the method: as §1
# [19] = tested on: NCC19; conditions: NCC19 cells, 72 hours; for area under the viability curve (AUC), normalized: 12-point dose-response
# Summary of the method: as §1
# [20] = tested on: NCC59; conditions: NCC59 cells, 72 hours; for area under the viability curve (AUC), normalized: 12-point dose-response
# Summary of the method: as §1
# [21] = tested on: SNU1750; conditions: 72 hours; for area under the viability curve (AUC), normalized: SNU1750 cells, 12-point dose-response
# Summary of the method: as §1
# [22] = tested on: YCC3; conditions: YCC3 cells, 72 hours; for area under the viability curve (AUC), normalized: 12-point dose-response
# Summary of the method: as §1
# [23] = tested on: AGS; conditions: 72 hours; for area under the viability curve (AUC), normalized: AGS cells, 12-point dose-response
# Summary of the method: as §2
# [24] = tested on: SNU638; conditions: SNU638 cells, 72 hours; for area under the viability curve (AUC), normalized: 12-point dose-response
# Summary of the method: as §1
# [25] = tested on: SNU216; conditions: 72 hours; for area under the viability curve (AUC), normalized: SNU216 cells, 12-point dose-response
# Summary of the method: as §2
# [26] = tested on: SNU484; conditions: 72 hours; for area under the viability curve (AUC), normalized: SNU484 cells, 12-point dose-response
# Summary of the method: as §1
# [27] = tested on: SNU620; conditions: SNU620 cells, 72 hours; for area under the viability curve (AUC), normalized: 12-point dose-response
# Summary of the method: as §1
# [28] = tested on: NCC24; conditions: NCC24 cells, 72 hours; for area under the viability curve (AUC), normalized: 12-point dose-response
# Summary of the method: as §1
# [29] = tested on: FU97; design: Average Area Under the Viability Curve (AUC), AUC norm value: scale not given here; conditions: FU97 cells, 72 hours; for area under the viability curve (AUC), normalized: 12-point dose-response
# Summary of the method: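 Trapezoidal AUC of a 12-point, DMSO-normalized dose-response curve. Luminescent viability was measured after 72 h of exposure at 37° C to half-log serial dilutions (0.5% DMSO control), dosed 24 h after plating FU97 cells at 5×10^3 per well.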
structure (smiles),measurement,setting,value
"CC(C)C[C@H](NC(=O)[C@H](Cc1ccccc1)NC(=O)c1cnccn1)B(O)O [Bortezomib (Velcade), Bortezomib]","area under the viability curve (AUC), normalized",[1],−0.07383
same,"area under the viability curve (AUC), normalized",[2],1.569
same,"area under the viability curve (AUC), normalized",[3],−0.9394
same,"area under the viability curve (AUC), normalized",[4],1.082
same,"area under the viability curve (AUC), normalized",[5],1.081
same,"area under the viability curve (AUC), normalized",[6],0.3149
same,"area under the viability curve (AUC), normalized",[7],−0.0987
same,"area under the viability curve (AUC), normalized",[8],0.1641
same,"area under the viability curve (AUC), normalized",[9],−0.416
same,"area under the viability curve (AUC), normalized",[10],1.358
same,"area under the viability curve (AUC), normalized",[11],0.6953
same,"area under the viability curve (AUC), normalized",[12],2.346
same,"area under the viability curve (AUC), normalized",[13],−0.6649
same,"area under the viability curve (AUC), normalized",[14],0.3944
same,"area under the viability curve (AUC), normalized",[15],−0.1078
same,"area under the viability curve (AUC), normalized",[16],−0.3028
same,"area under the viability curve (AUC), normalized",[17],0
same,"area under the viability curve (AUC), normalized",[18],−0.8453
same,"area under the viability curve (AUC), normalized",[19],−0.6969
same,"area under the viability curve (AUC), normalized",[20],0.8821
same,"area under the viability curve (AUC), normalized",[21],−1.326
same,"area under the viability curve (AUC), normalized",[22],2.791
same,"area under the viability curve (AUC), normalized",[23],−0.1894
same,"area under the viability curve (AUC), normalized",[24],0.06564
same,"area under the viability curve (AUC), normalized",[25],0.4223
same,"area under the viability curve (AUC), normalized",[26],−0.6338
same,"area under the viability curve (AUC), normalized",[27],−0.6115
same,"area under the viability curve (AUC), normalized",[28],−0.3911
same,"area under the viability curve (AUC), normalized",[29],0.01494
C/C(=C\c1csc(C)n1)[C@@H]1C[C@@H]2O[C@@H]2CCC[C@H](C)[C@H](O)[C@@H](C)C(=O)C(C)(C)[C@@H](O)CC(=O)O1 [Epothilone A],"area under the viability curve (AUC), normalized",[1],−0.2006
same,"area under the viability curve (AUC), normalized",[2],−1.51
same,"area under the viability curve (AUC), normalized",[3],1.217
same,"area under the viability curve (AUC), normalized",[4],4.761
same,"area under the viability curve (AUC), normalized",[5],4.484
same,"area under the viability curve (AUC), normalized",[6],−1.14
same,"area under the viability curve (AUC), normalized",[7],−1.12
same,"area under the viability curve (AUC), normalized",[8],0.6604
same,"area under the viability curve (AUC), normalized",[9],−1.4393
same,"area under the viability curve (AUC), normalized",[10],−0.2909
same,"area under the viability curve (AUC), normalized",[11],0.1784
same,"area under the viability curve (AUC), normalized",[12],1.699
same,"area under the viability curve (AUC), normalized",[13],−1.2702
same,"area under the viability curve (AUC), normalized",[14],−0.9541
same,"area under the viability curve (AUC), normalized",[15],−0.5459
same,"area under the viability curve (AUC), normalized",[16],−1.75
same,"area under the viability curve (AUC), normalized",[17],0.2913
same,"area under the viability curve (AUC), normalized",[18],0.6477
same,"area under the viability curve (AUC), normalized",[19],0
same,"area under the viability curve (AUC), normalized",[20],3.583
same,"area under the viability curve (AUC), normalized",[21],1.039
same,"area under the viability curve (AUC), normalized",[22],2.8742
same,"area under the viability curve (AUC), normalized",[23],−1.655
same,"area under the viability curve (AUC), normalized",[24],0.3118
same,"area under the viability curve (AUC), normalized",[25],2.403
same,"area under the viability curve (AUC), normalized",[26],−0.4364
same,"area under the viability curve (AUC), normalized",[27],−2.268
same,"area under the viability curve (AUC), normalized",[28],−1.8431
same,"area under the viability curve (AUC), normalized",[29],0.9454
CC[C@]1(O)C[C@@H]2CN(CCc3c([nH]c4ccccc34)[C@@](C(=O)OC)(c3cc4c(cc3OC)N(C)[C@H]3[C@@](O)(C(=O)OC)[C@H](OC(C)=O)[C@]5(CC)C=CCN6CC[C@]43[C@@H]65)C2)C1 [Vinblastine],"Average Area Under the Viability Curve (AUC), AUC norm value",[1],0
same,"Average Area Under the Viability Curve (AUC), AUC norm value",[2],−0.1721
same,"Average Area Under the Viability Curve (AUC), AUC norm value",[3]; Hs746T cells (SEM subtype),1.1779
same,"Average Area Under the Viability Curve (AUC), AUC norm value",[4],4.096
same,"Average Area Under the Viability Curve (AUC), AUC norm value",[5],4.162
same,"Average Area Under the Viability Curve (AUC), AUC norm value",[6],−0.9285
same,"Average Area Under the Viability Curve (AUC), AUC norm value",[7],−1.3
same,"Average Area Under the Viability Curve (AUC), AUC norm value",[8]; MKN45 cells (non-SEM subtype),1.844
same,"Average Area Under the Viability Curve (AUC), AUC norm value",[9],−0.818
same,"Average Area Under the Viability Curve (AUC), AUC norm value",[10]; SNU668 cells (SEM subtype),−1.037
same,"Average Area Under the Viability Curve (AUC), AUC norm value",[11],2.06
same,"Average Area Under the Viability Curve (AUC), AUC norm value",[12],2.514
same,"Average Area Under the Viability Curve (AUC), AUC norm value",[13]; YCC11 cells (SEM subtype),−0.6159
same,"Average Area Under the Viability Curve (AUC), AUC norm value",[14]; SK4 cells (SEM subtype),−1.0813
same,"Average Area Under the Viability Curve (AUC), AUC norm value",[15],−1.614
same,"Average Area Under the Viability Curve (AUC), AUC norm value",[16],−0.3949
same,"Average Area Under the Viability Curve (AUC), AUC norm value",[17],0.6639
same,"Average Area Under the Viability Curve (AUC), AUC norm value",[18],−0.9411
same,"Average Area Under the Viability Curve (AUC), AUC norm value",[19],2.905
same,"Average Area Under the Viability Curve (AUC), AUC norm value",[20],2.833
same,"Average Area Under the Viability Curve (AUC), AUC norm value",[21]; SNU1750 cells (SEM subtype),0.6497
same,"Average Area Under the Viability Curve (AUC), AUC norm value",[22],4.54
same,"Average Area Under the Viability Curve (AUC), AUC norm value",[23]; AGS cells (non-SEM subtype),−1.129
same,"Average Area Under the Viability Curve (AUC), AUC norm value",[24],0.2652
same,"Average Area Under the Viability Curve (AUC), AUC norm value",[25]; SNU216 cells (non-SEM subtype),2.539
same,"Average Area Under the Viability Curve (AUC), AUC norm value",[26]; SNU484 cells (SEM subtype),−1.194
same,"Average Area Under the Viability Curve (AUC), AUC norm value",[27],−0.4909
same,"Average Area Under the Viability Curve (AUC), AUC norm value",[28],−0.9438
same,"Average Area Under the Viability Curve (AUC), AUC norm value",[29],0.3772
